Read-outs that look alike come from different tables or passages of the source.
What was measured:
GABAA receptor [1] = assay: Frontal chromatography on immobilized GABAA receptor (GR-IAM), [3H]-flunitrazepam marker; assay type: binding, rat
Procedure: Supernatant is discarded.
All chromatographic experiments are performed at flow rate 0.4 ml/min at room temperature. […] The chromatographic data is summed up in 1-min intervals and smoothed using the Microsoft Excel program with a 10 point moving average.

GABAA receptor [2] = conditions: read-out: Kd, Binding Assays; classical binding assays
α3/β4 nAChR [3] = molecular target: T1, α3/β4 nAChR (Rattus norvegicus, UniProt P04757+P12392); assay: Frontal chromatography with α3/β4 nAChR-IAM stationary phase ([3H]-EB marker); assay type: binding
T1 construct: expressed in transfected cells
T1 sequence (P04757 26-499): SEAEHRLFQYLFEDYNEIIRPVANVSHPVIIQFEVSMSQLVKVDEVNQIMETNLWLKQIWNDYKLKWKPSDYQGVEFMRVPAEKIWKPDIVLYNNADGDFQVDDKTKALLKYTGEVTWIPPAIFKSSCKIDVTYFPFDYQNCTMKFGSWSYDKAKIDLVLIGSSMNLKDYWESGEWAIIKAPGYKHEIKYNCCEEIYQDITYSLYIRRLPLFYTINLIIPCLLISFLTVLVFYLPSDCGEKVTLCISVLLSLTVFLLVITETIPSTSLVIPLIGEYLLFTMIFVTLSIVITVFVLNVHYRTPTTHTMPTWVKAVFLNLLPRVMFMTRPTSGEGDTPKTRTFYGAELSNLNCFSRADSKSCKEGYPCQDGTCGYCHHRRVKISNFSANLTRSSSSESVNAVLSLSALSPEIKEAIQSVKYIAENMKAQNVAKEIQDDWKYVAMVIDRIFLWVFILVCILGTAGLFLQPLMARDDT
T1 sequence (P12392 21-495): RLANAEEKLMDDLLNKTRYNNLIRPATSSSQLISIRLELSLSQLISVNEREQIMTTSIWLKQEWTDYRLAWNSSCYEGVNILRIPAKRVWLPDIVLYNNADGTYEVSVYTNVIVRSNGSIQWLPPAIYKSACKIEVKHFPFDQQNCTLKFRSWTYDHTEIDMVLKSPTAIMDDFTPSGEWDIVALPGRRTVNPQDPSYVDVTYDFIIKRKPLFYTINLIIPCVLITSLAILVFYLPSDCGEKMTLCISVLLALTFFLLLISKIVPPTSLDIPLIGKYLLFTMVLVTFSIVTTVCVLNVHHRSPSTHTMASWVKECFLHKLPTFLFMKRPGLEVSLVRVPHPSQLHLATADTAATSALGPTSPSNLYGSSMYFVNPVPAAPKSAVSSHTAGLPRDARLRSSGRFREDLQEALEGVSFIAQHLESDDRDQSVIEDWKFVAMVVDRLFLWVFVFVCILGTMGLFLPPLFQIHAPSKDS
Procedure: Rat whole forebrain or transfected cells are suspended in 50 mM Tris-HCI, pH 7.4, (buffer A), homogenized for 30 seconds with Brinkmann Polytron, and centrifuged at 40,000×g for 10 min at 4° C. The pellet is resuspended in 6 ml of 2% deoxycholate or 2% cholate in buffer A and stirred for 2 hours. The mixture is centrifuged at 35,000×g for 30 minutes, and the supernatant containing nAChR-deoxycholate solution is collected.
Dried IAM particles are suspended in 4 ml of the obtained detergent solutions containing nAChR subunits or subtypes. For the immobilization of one nAChR subtype, the mixture of IAM-detergent-receptor is stirred for 1 hour at room temperature. The suspension is dialyzed against 2×1 L buffer A for 24 hours at 4° C. The IAM LC support with immobilized nAChRs is then washed with buffer A, centrifuged and the solid collected.
Chromatography based on nAChR-LAMcolumn or nAChR-liposome-Superdex 200 column: The nAChR-IAM particles or nAChR-Superdex gel beads are packed in a HR5/2 glass column and connected to a HPLC pump. […] All chromatographic experiments are performed at flow rate 0.4 ml/min at room temperature.
The chromatographic data is summed up in 1-min intervals and smoothed using the Microsoft Excel program with a 10 point moving average.

α3/β4 nAChR [4] = molecular target: T1, α3/β4 nAChR; assay: Ligand binding assay using cell membrane homogenates
[5] = a3/(34-IAM stationary phase (0.5 × 1.3 cm)), read-out: Kd (frontal chromatography)

Structure (SMILES): CN1C(=O)CN=C(c2ccccc2)c2cc(Cl)ccc21 [Diazepam]
- Kd (GABAA receptor [1]): 1 nM
- Kd (GABAA receptor [2]): 1.3 nM

Structure (SMILES): CN1[C@@H]2CC[C@H]1C[C@@H](OC(=O)C(CO)c1ccccc1)C2 (stereo partly shown) [Atropine]
- Kd (α3/β4 nAChR [3]): 14600 nM

Structure (SMILES): C[N+](C)(C)CCOC(N)=O [Carbachol]
- mobile phase concentration required to decrease the retention volume of 60 pM [3H]-EB from 9.5 ml to 6 ml (α3/β4 nAChR [3]): 1,200 nM
- Kd (α3/β4 nAChR [3]; [5]): 1280 nM
- Kd (α3/β4 nAChR [4]): 3840 nM

Structure (SMILES): c1cncc(OC[C@@H]2CCN2)c1 [A85380]
- Kd (α3/β4 nAChR [3]; [5]): 17.2 ± 0.5 nM
- mobile phase concentration required to decrease the retention volume of 60 pM [3H]-EB from 9.5 ml to 6 ml (α3/β4 nAChR [3]; α3/β4 nAChR column (0.5×1.25 cm)): 1.7 nM
- Kd (α3/β4 nAChR [4]): 73.6 ± 6.3 nM

Structure (SMILES): CN1CCCC1c1cccnc1 (single isomer, unassigned; (-)) [(−)-Nicotine]
- mobile phase concentration required to decrease the retention volume of 60 pM [3H]-EB from 9.5 ml to 6 ml (α3/β4 nAChR [3]): 45 nM

From patent US6887202B2, “Systems and methods for monitoring health and delivering drugs transdermally” (Science Applications International Corporation, priority 2000, dated 2005)
